PubChem BioAssay AID248 (DTP/NCI, 2004)
Toxic doses and inconclusive results are not listed.

System: L1210 leukemia ip in BDF1 mice, survival T/C
Assay: NCI In Vivo Anticancer Drug Screen. Data for tumor model L1210 Leukemia (intraperitoneal) in B6D2F1 (BDF1) mice
Details: endpoint: mean survival time, higher = longer survival
Procedure, shortened: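 Survival endpoint. Drug-treated group vs vehicle group, expressed as T divided by C. Tumor passaged by transplantation.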

[1] = dose: 75.0 mg/kg/injection, schedule: Q01DX001 (ip), vehicle: saline
[2] = dose: 150.0 mg/kg/injection, schedule: Q01DX001 (ip), vehicle: saline
[3] = dose: 300.0 mg/kg/injection, schedule: Q01DX001 (ip), vehicle: saline
[4] = dose: 100.0 mg/kg/injection, schedule: Q04DX003 (ip), vehicle: saline
[5] = dose: 200.0 mg/kg/injection, schedule: Q04DX003 (ip), vehicle: saline
[6] = dose: 100.0 mg/kg/injection, schedule: Q04DX002 (ip), vehicle: Klucel (hydroxypropylcellulose) (HPC)
[7] = dose: 200.0 mg/kg/injection, schedule: Q04DX002 (ip), vehicle: Klucel (hydroxypropylcellulose) (HPC)
[8] = dose: 100.0 mg/kg/injection, schedule: Q01DX001 (ip), vehicle: carboxymethylcellulose (CMC)
[9] = dose: 200.0 mg/kg/injection, schedule: Q01DX001 (ip), vehicle: carboxymethylcellulose (CMC)
[10] = dose: 400.0 mg/kg/injection, schedule: Q01DX001 (ip), vehicle: carboxymethylcellulose (CMC)
[11] = dose: 400.0 mg/kg/injection, schedule: Q04DX002 (ip), vehicle: Klucel (hydroxypropylcellulose) (HPC)
[12] = dose: 400.0 mg/kg/injection, schedule: Q04DX003 (ip), vehicle: saline
[13] = dose: 100.0 mg/kg/injection, schedule: Q04DX003 (ip), vehicle: Klucel (hydroxypropylcellulose) (HPC)
[14] = dose: 200.0 mg/kg/injection, schedule: Q04DX003 (ip), vehicle: Klucel (hydroxypropylcellulose) (HPC)
[15] = dose: 400.0 mg/kg/injection, schedule: Q04DX003 (ip), vehicle: Klucel (hydroxypropylcellulose) (HPC)
[16] = dose: 100.0 mg/kg/injection, schedule: Q04DX003 (ip), vehicle: saline with Tween-80
[17] = dose: 200.0 mg/kg/injection, schedule: Q04DX003 (ip), vehicle: saline with Tween-80
[18] = dose: 400.0 mg/kg/injection, schedule: Q04DX003 (ip), vehicle: saline with Tween-80

Nc1ccc(N(CCCl)CCN(CCCl)c2ccc(N)cc2)cc1
T/C (dose: 0.25 mg/kg/injection, schedule: Q01DX009 (ip), vehicle: saline): 102 % of control | T/C (dose: 0.5 mg/kg/injection, schedule: Q01DX009 (ip), vehicle: saline): 109 % of control | T/C (dose: 1.0 mg/kg/injection, schedule: Q01DX009 (ip), vehicle: saline): 118 % of control | T/C (dose: 1.2 mg/kg/injection, schedule: Q01DX009 (ip), vehicle: carboxymethylcellulose (CMC)): 109 % of control | T/C (dose: 2.5 mg/kg/injection, schedule: Q01DX001 (ip), vehicle: carboxymethylcellulose (CMC)): 106 % of control | T/C (dose: 2.5 mg/kg/injection, schedule: Q01DX009 (ip), vehicle: carboxymethylcellulose (CMC)): 111 % of control | T/C (dose: 2.9 mg/kg/injection, schedule: Q01DX001 (ip), vehicle: carboxymethylcellulose (CMC)): 114 % of control | T/C (dose: 2.9 mg/kg/injection, schedule: Q01DX009 (ip), vehicle: carboxymethylcellulose (CMC)): 119 % of control | T/C (dose: 2.9 mg/kg/injection, schedule: Q01DX009 (ip), vehicle: saline): 169 % of control | T/C (dose: 4.0 mg/kg/injection, schedule: Q01DX001 (ip), vehicle: saline): 106 % of control | T/C (dose: 4.4 mg/kg/injection, schedule: Q01DX001 (ip), vehicle: carboxymethylcellulose (CMC)): 119 % of control | T/C (dose: 4.4 mg/kg/injection, schedule: Q01DX009 (ip), vehicle: saline): 159 % of control | T/C (dose: 5.0 mg/kg/injection, schedule: Q01DX001 (ip), vehicle: carboxymethylcellulose (CMC)): 115 % of control | T/C (dose: 6.0 mg/kg/injection, schedule: Q01DX001 (ip), vehicle: saline): 122 % of control | T/C (dose: 10.0 mg/kg/injection, schedule: Q01DX001 (ip), vehicle: saline): 111 % of control | T/C (dose: 10.0 mg/kg/injection, schedule: Q01DX009 (ip), vehicle: carboxymethylcellulose (CMC)): 106 % of control | T/C (dose: 10.0 mg/kg/injection, schedule: Q01DX009 (ip), vehicle: saline): 105 % of control | T/C (dose: 15.0 mg/kg/injection, schedule: Q01DX001 (ip), vehicle: saline): 117 % of control

O=[N+]([O-])c1ccc(P(=O)(Nc2ccc(Cl)cc2)Nc2ccc(Cl)cc2)cc1
T/C [1]: 86 % of control | T/C [2]: 86 % of control | T/C [3]: 91 % of control

C/C(=C\Cl)C(=O)O
T/C [4]: 99 % of control | T/C [5]: 101 % of control

CCN(CC)CCOC(=O)Nc1ccccc1
T/C (dose: 50.0 mg/kg/injection, schedule: Q04DX003 (ip), vehicle: saline): 98 % of control | T/C [4]: 90 % of control

CCCCCCC(=O)N1CC(C)OC(C)C1 (stereo not drawn)
T/C [6]: 96 % of control | T/C [7]: 96 % of control

O=[N+]([O-])c1ccc(CCBr)cc1
T/C (dose: 50.0 mg/kg/injection, schedule: Q01DX001 (ip), vehicle: carboxymethylcellulose (CMC)): 96 % of control | T/C [8]: 94 % of control | T/C [9]: 100 % of control | T/C [10]: 105 % of control

S=C(S)NC1c2ccccc2-c2ccccc21 (tested in a mixture with another compound)
T/C [8]: 94 % of control | T/C [9]: 90 % of control | T/C [10]: 96 % of control

CCCCCCCCP(=O)(N1CC1C)N1CC1C (stereo not drawn)
T/C (dose: 25.0 mg/kg/injection, schedule: Q01DX009 (ip), vehicle: saline): 98 % of control | T/C (dose: 50.0 mg/kg/injection, schedule: Q01DX009 (ip), vehicle: saline): 104 % of control | T/C (dose: 100.0 mg/kg/injection, schedule: Q01DX009 (ip), vehicle: saline): 98 % of control | T/C [4]: 91 % of control

O=C(CS)NNC(=O)CS
T/C [6]: 93 % of control | T/C [4]: 104 % of control | T/C [7]: 96 % of control | T/C [5]: 110 % of control | T/C [11]: 104 % of control | T/C [12]: 86 % of control

Cc1cc([N+](=O)[O-])c(C)cc1Cl
T/C (dose: 100.0 mg/kg/injection, schedule: Q01DX009 (ip), vehicle: saline sonified): 98 % of control | T/C [13]: 98 % of control | T/C (dose: 200.0 mg/kg/injection, schedule: Q01DX009 (ip), vehicle: saline sonified): 100 % of control | T/C [14]: 98 % of control | T/C (dose: 400.0 mg/kg/injection, schedule: Q01DX009 (ip), vehicle: saline sonified): 100 % of control | T/C [15]: 98 % of control

CN1C2CCC1CC(=O)C2
T/C [1]: 103 % of control | T/C [2]: 102 % of control

O=[N+]([O-])/C=C/c1ccccc1O
T/C (dose: 6.25 mg/kg/injection, schedule: Q04DX003 (ip), vehicle: saline): 92 % of control | T/C (dose: 12.5 mg/kg/injection, schedule: Q04DX003 (ip), vehicle: saline): 101 % of control | T/C (dose: 25.0 mg/kg/injection, schedule: Q04DX003 (ip), vehicle: saline): 92 % of control

O=P1(O)[O][Sn]([c]2ccccc2)([c]2ccccc2)[O]1
T/C (dose: 6.25 mg/kg/injection, schedule: Q01DX009 (ip), vehicle: saline with Tween-80): 97 % of control | T/C (dose: 12.5 mg/kg/injection, schedule: Q01DX009 (ip), vehicle: saline with Tween-80): 97 % of control

c1ccc2c(c1)ccc1c3ccccc3[nH]c21
T/C [16]: 93 % of control | T/C [17]: 105 % of control | T/C [18]: 96 % of control

COc1cc(C(=O)NCCBr)cc(OC)c1OC
T/C [4]: 107 % of control | T/C [5]: 108 % of control | T/C [12]: 103 % of control

CC(=O)c1c(C)[nH]c(C(=O)O)c1C
T/C (dose: 100.0 mg/kg/injection, schedule: Q01DX001 (ip), vehicle: saline with Tween-80): 103 % of control | T/C (dose: 200.0 mg/kg/injection, schedule: Q01DX001 (ip), vehicle: saline with Tween-80): 100 % of control | T/C (dose: 400.0 mg/kg/injection, schedule: Q01DX001 (ip), vehicle: saline with Tween-80): 90 % of control

O=C(O)c1cccc(N=Cc2ccc3c(c2)CCC3)c1
T/C [13]: 94 % of control | T/C [14]: 94 % of control | T/C [15]: 95 % of control

CN(C)C(=S)Oc1ccc(C(=O)O)cc1
T/C (dose: 100.0 mg/kg/injection, schedule: Q01DX001 (ip), vehicle: Klucel (hydroxypropylcellulose) (HPC)): 86 % of control | T/C (dose: 200.0 mg/kg/injection, schedule: Q01DX001 (ip), vehicle: Klucel (hydroxypropylcellulose) (HPC)): 90 % of control | T/C (dose: 400.0 mg/kg/injection, schedule: Q01DX001 (ip), vehicle: Klucel (hydroxypropylcellulose) (HPC)): 88 % of control

NC(=O)c1ccc[n+](CC(=O)Nc2ccc(Cl)cc2)c1
T/C [16]: 101 % of control | T/C [17]: 101 % of control | T/C [18]: 95 % of control

CC1(c2ccc(Cl)cc2)NC(=O)N(CC(N)=O)C1=O (stereo not drawn)
T/C [16]: 105 % of control | T/C [18]: 122 % of control

Nc1ccc(C(=O)OCCCCC2CCCC2N)cc1 (stereo not drawn)
T/C [1]: 97 % of control | T/C [2]: 113 % of control

O=C(O)C1CCC=CC1c1ccccc1 (stereo not drawn)
T/C (dose: 100.0 mg/kg/injection, schedule: Q01DX005 (ip), vehicle: saline with Tween-80): 101 % of control | T/C (dose: 100.0 mg/kg/injection, schedule: Q01DX009 (ip), vehicle: saline with Tween-80): 96 % of control | T/C (dose: 200.0 mg/kg/injection, schedule: Q01DX005 (ip), vehicle: saline with Tween-80): 101 % of control | T/C (dose: 200.0 mg/kg/injection, schedule: Q01DX009 (ip), vehicle: saline with Tween-80): 110 % of control | T/C (dose: 400.0 mg/kg/injection, schedule: Q01DX005 (ip), vehicle: saline with Tween-80): 116 % of control | T/C (dose: 400.0 mg/kg/injection, schedule: Q01DX009 (ip), vehicle: saline with Tween-80): 110 % of control

O=C(NC(=S)NCc1ccccc1)c1ccccc1
T/C [1]: 98 % of control | T/C [2]: 93 % of control | T/C [3]: 98 % of control

COC1OC(COS(C)(=O)=O)C(OS(C)(=O)=O)C(OC(=O)c2ccccc2)C1OS(C)(=O)=O (stereo not drawn)
T/C [6]: 111 % of control | T/C [7]: 97 % of control | T/C [11]: 97 % of control

O=c1[nH]c2c(cnn2-c2ccccc2)c(=O)n1O
T/C (dose: 50.0 mg/kg/injection, schedule: Q01DX001 (ip), vehicle: saline): 97 % of control | T/C (dose: 100.0 mg/kg/injection, schedule: Q01DX001 (ip), vehicle: saline): 100 % of control
